Measured values reported in PMC8471001 (Biosensors, 2021).
Entries after “also recorded” stand apart in the source; their conditions may differ. Blank lines part the entries; values can stand above or below the molecule they belong to.

How the values were obtained:
[1] = target: tyrosinase (EC 1.14.18.1, from mushroom); assay: Amperometric biosensor: tyrosinase immobilized on carbon black paste electrode, inhibition of catechol response; type: biochemical; settings: for IC50: 0.1 M phosphate buffer pH 6.8, -0.15 V vs. Ag/AgCl; for IC50 / type of inhibition: immobilized tyrosinase; for type of inhibition: from shift of inhibition curve, 20 vs 200 µM catechol; for inhibition range of catechol response: 20 µM catechol
Procedure: The immobilization of tyrosinase onto the surface of the carbon black paste electrode (CBPE) was achieved by cross-linking with glutaraldehyde and bovine serum albumin (BSA) as reported elsewhere for several enzyme biosensors. In brief, the enzyme solution was first prepared by mixing 15 µL of Tyr (35 U/mL), 7.5 µL of BSA (1% w/v), and 7.5 µL of glutaraldehyde (0.25% w/v) on a glass slide. Then, 7.5 µL of the mixture was spread on the surface of a CBPE, and lastly, it was dried at room temperature for 1 h. Before electrochemical measurements, the enzyme electrode was placed under stirring for 10 min in PBS buffer to remove the enzyme not firmly immobilized. The electrodes were maintained at 4 °C in phosphate buffer, pH 6.8 until use.
The tyrosinase was immobilized on the surface of the carbon black paste electrode. The electrochemical measurements of o-quinone produced by the tyrosinase-based biosensor, in presence of catechol as substrate, were monitored by an amperometric measurement.
The enzyme activity assays were performed in an electrochemical cell containing 5 mL of 0.1 M phosphate buffer, pH 6.8 at 25 °C. The applied potential was fixed at −0.15 V.
To perform each amperometric measurement, the CBPE-Tyr electrode was dipped into an electrochemical cell containing 5 mL of 0.1 M phosphate buffer solution (pH 6.8) under constant magnetic stirring. The applied potential was fixed to −0.15 V versus Ag/AgCl. Once the baseline was established (10 min approximately), a defined amount of catechol solution was added to the measuring cell. […] Then, the inhibitor solutions were added consecutively each time a plateau was reached (approximately every 30 s). The addition of tyrosinase inhibitors causes an inhibition of the enzyme, consequently decreasing the amount of liberated enzymatic reaction products.
(§1) To evaluate the degree of inhibition (I%) of the tyrosinase activity, signal responses in the absence (I0) and the presence of an inhibitor (I1) were measured with either an electrochemical or colorimetric method. The degree of inhibition (I%) is expressed as follows: (1) I(%)=I0−I1/I0×100
When using the amperometric biosensor, the CBPE/Tyr modified electrode was immersed into a phosphate buffer solution at pH 6.8, under stirring and a fixed potential of −0.15 V. After stabilizing the baseline current, a fixed amount of catechol (substrate) was added to reach a steady-state current (I0) before adding the inhibitor. […] The concentration of inhibitors was increased to inhibit tyrosinase activity, and the current decrease (I1) was recorded.

[2] = system: mushroom tyrosinase; assay: Spectrophotometric progress-curve assay of free tyrosinase with L-tyrosine (half-time reaction t'1/2); type: biochemical; settings: plot of t'1/2 versus inhibitor concentration at 0.5-3 mM L-tyrosine
Procedure: Substrate conversion was evaluated by measuring the increase in absorbance at 490 nm. The absorbance was sampled every 1 min, allowing each progression curve to be constructed in 40 min.
as §1

Structure (SMILES): O=C(O)c1ccccc1 [benzoic acid]
IC50 ([1]; 20 µM catechol substrate): 119 µM
IC50 ([1]; 200 µM catechol substrate): 500 µM
type of inhibition [1]: competed with catechol
inhibition range of catechol response ([1]; inhibitor 5 µM to 275 µM): 8–69%

inhibition range of catechol response ([1]; inhibitor 2.5 µM to 97.5 µM): 13–74%
type of inhibition [2]: competitive inhibition
Structure (SMILES): O=c1cc(CO)occ1O [kojic acid]
type of inhibition [1]: competitive inhibition; also recorded: competed with catechol

Structure (SMILES): [N-]=[N+]=[N-].[Na+] [sodium azide]
IC50 ([1]; 20 µM catechol substrate): 1480 µM
IC50 ([1]; 200 µM catechol substrate): 2000 µM
type of inhibition [1]: competed with catechol
inhibition range of catechol response ([1]; inhibitor 0.01 mM to 1.57 mM): 7–64%
